In a melting point compilation (Tetko et al.; mined from patent text by program, amines drawn as free bases though some values may be those of a salt):

Compound | melting point [°C]
COc1ccc2c(c1)nnc1c(C)nc(-c3cc(Cl)ccc3Cl)n12 | 144 to 147
CCOC(=O)c1c(NC(=O)C(F)(F)F)c2cccnc2n(CC)c1=O | 195 to 197
Cc1cccc(C(=O)C(=C2SCS2)c2ccncc2)c1 | 179
Clc1ccc(N2CCN(Cc3nc4ccccc4[nH]3)CC2)cc1 | 212 to 213
CC(C(=O)O)C(=O)c1ncc(Cl)cc1F (centres undefined) | 101 to 102
C#CCn1c(I)cc(C(O)C(C)(C)C)c(C)c1=O (centres undefined) | 105 to 106
c1cn(CCc2nc(-c3ccc4c(c3)OCO4)c3cc4c(cc3n2)OCO4)cn1 | 160 to 163
CC(C)NC(=O)c1ccc(N2CCC(N3C(=O)OCc4ccccc43)CC2)nc1 | > 230
CCOC(=O)CCCn1cc(-c2cccnc2)c2cc([N+](=O)[O-])ccc21 | 76 to 78
Nc1ccccc1C(=O)c1ccc(Br)cc1 | 104 to 106
Cc1cc(C)c(C)c(C(=O)Cn2ccnc2)c1C | 176 to 178
C#CCOc1cc(-n2nc3n(c2=O)CCCN3)c(F)cc1Cl | 172 to 174
CC(=O)C=Cc1ccc(Cl)c(Cl)c1 | 53 to 55
Cn1c(C(F)(F)F)ccc(-c2cc(S)c(Cl)cc2F)c1=O | 141 to 142
COc1ccc(NN=C(Sc2cccc(OC)c2)C(C)=O)cc1 | 97 to 99
Cn1cc(C2=C(c3c4n(c5ccccc35)CCC(CO)CC4)C(=O)NC2=O)c2ccccc21 (centres undefined) | 109 to 111
NC(=O)c1nc2cc(F)c([N+](=O)[O-])cc2[nH]c1=O | > 300
Cc1c(N)cccc1OC[C@@H]1CCCN1C(=O)OC(C)(C)C | 110
Cc1ccc(S(=O)(=O)C(CCl)Sc2cccc([N+](=O)[O-])c2)cc1 (centres undefined) | 92 to 101
Fc1cc2c(Nc3ccc(Cl)c(Cl)c3)ncnc2cn1 | 262 to 264
N#Cc1cc(O)ccc1Br | 183 to 184
CN(C)C1(c2cccc(F)c2)CCC(CC(=O)NCCCc2ccccc2)CC1 (centres undefined) | 119 to 122

Compound | melting point [°C]
CC(C(N)=O)c1ccc2c(c1)Sc1ccccc1CC2=O (centres undefined) | 178 to 179
CC1CCCC1(O)c1ccc(C#N)c2ccccc12 (centres undefined) | 121 to 122
O=C(Nc1ccccc1F)c1c[nH]c2c1C(=O)CCC2 | 238 to 240
CN1CCN(Cc2ccccc2)C(c2ccccc2)C1 (centres undefined) | 58 to 60
Cc1ccc(-c2nc(Cl)c3ccccc3n2)cc1 | 113 to 115
COc1cc(C)c(N)c(C)c1C | 70 to 72
CC#CCOc1ccc(S(=O)(=O)C(C(=O)NO)c2cccc(Cl)c2)cc1 (centres undefined) | 50
CC(=O)c1ccc(Nc2nc(N)c(C(=O)c3ccccc3[N+](=O)[O-])s2)cc1 | 264 to 265
O=C(O)c1cccc2c1[nH]c1ccc(F)cc12 | 254
O=C1CCCN1c1cccc(Cc2n[nH]c(=O)c3ccccc23)c1 | 206 to 207
COc1ccc(-c2nc(C(=O)O)c[nH]2)cc1OC1CCCC1 | 206 to 208
COc1ccc(C(=O)CCC2OCCO2)cc1OC | 103 to 105
COc1ccc(C=Cc2ccc(C)c(Cl)c2)c(Cl)c1 | 77 to 79
CCC(C)(C)c1cc(C(C)(C)CC)c2c(c1)C1(O)C(=O)c3ccccc3C1(O)O2 (centres undefined) | 195 to 222
Cc1cc(C(=O)O)c2c(c1)C(C(Cl)(Cl)Cl)OC(C(Cl)(Cl)Cl)O2 (centres undefined) | 290 to 291
Cc1csc(NC(=O)C(C(=O)OC(C)C)=C2SCCS2)n1 | 161 to 162
CNC(=O)N(C)c1nnc(C(C)(C)CCl)s1 | 159 to 161
O=C(OC1CCCCC1)c1ncn2c1[C@@H]1CCCN1C(=O)c1c-2cccc1C(F)(F)F | 193 to 194
CCCCCS(=O)(=O)NC(=O)/C=C/c1ccc(OCCOC)cc1Oc1ncc([N+](=O)[O-])cc1C | 148 to 150
Cc1ccc(Oc2nc3ccc(N=C=S)cc3s2)cc1 | 121 to 123
COC1C(O)C(CO)OC1n1cnc2c(=S)n(C)cnc21 (centres undefined) | 182 to 187
Cn1cc(C#N)c(Br)c1Br | 138 to 139

Compound | melting point [°C]
O=C1CC(OC2CCCCO2)C(CC2CCCCC2)N1 (centres undefined) | 110 to 115
CN(c1c(Cl)ccc2cc(-c3ncc(CO)s3)[nH]c12)S(=O)(=O)c1cccs1 | 214 to 215
CCS(=O)(=O)c1cc(C(=O)NCC2CCCN2CC2CCC2)c(OC)cc1N (centres undefined) | 170
COc1ccc(C(c2ccccc2)(c2ccc(OC)cc2)C(F)(F)F)cc1 | 120 to 121
Cc1nc(N2CCCC2)c2ccc(Br)cc2n1 | 120 to 122
N#CN1CCC(c2nn(-c3ccccc3)c3ccc(F)cc23)CC1 | 137 to 139
CCCCCCNCCC(=O)O | 95 to 97
COCCOc1ccc(/C=C/COC(=O)NS(=O)(=O)NCCN2CCCC2)c(Oc2ncc(C(F)(F)F)cc2Cl)c1 | 154 to 156
CC(C)C=C1CCC2(C1)C(=O)C=C(OC(C)C)CC2C (centres undefined) | 88 to 91
O=C1SCc2c(Cl)c(Cl)c(Cl)c(Cl)c21 | 181 to 183
Cc1cccc2c1sc1nc(C(F)(F)F)nn12 | 80 to 81
O=c1nc(-c2ccc(N3CCCC3)nc2)sc2ccccc12 | 221 to 223
CC(=O)Nc1ccc(N2CCNC2=O)cc1 | 270 to 273
CC(=O)NC1C(OCc2ccccc2)OC(COCc2ccccc2)C(OCc2ccccc2)C1OCC(O)CO (centres undefined) | 165 to 166
CCc1cn(C2CC(O)C(CNC(=O)Cc3cccs3)O2)c(=O)[nH]c1=O (centres undefined) | 215 to 217
CCCN(CCCc1c[nH]c2ccc(F)cc12)C1COc2c(F)ccc(C(N)=O)c2C1 (centres undefined) | 125
CNC(=O)c1cc2c(nc(C)n2C)c2c1CCC(c1ccccc1)O2 (centres undefined) | 291 to 292
CCOC(=O)c1ccc(N2CCN(C(=O)N(CC)CC)CC2)cc1 | 77 to 82
COc1ccc2c(-c3sccc3C)noc2c1Cl | 154 to 156
Nc1c2c(nc3ccccc13)CCCC2OCCBr (centres undefined) | 164
CN1C(=O)CN=C(c2ccccc2Cl)c2cccn21 | 132 to 134
N#Cc1cc(Cl)c(NC(=O)NC(=O)c2ccccc2Cl)cc1Cl | 244 to 247

Next, values leading:

melting point [°C] | Compound
162 to 163 | Cc1nccn1CC(COc1cccc(Cl)c1)Sc1c(Cl)cccc1Cl (centres undefined)
144 to 148 | O=C(Oc1ccccc1N1c2ccccc2Sc2ccccc21)c1ccccc1
156 to 157 | O=C(Nc1ccc(-n2nc(C(F)(F)F)cc2C(F)(F)F)cc1)c1ccncc1
135 to 137 | CCCCc1nn(-c2cc([N+](=O)[O-])ccc2C(F)(F)F)c(=O)n1Cc1ccc(-c2ccccc2S(=O)(=O)NC(C)(C)C)cc1
155 | Cn1c(=O)cc(-c2cccc(Cl)c2)c2cc(C(=O)c3ccc(Cl)cc3)ccc21
201 to 204 | CCOc1ccc(-c2ccc3c(c2)C=C(C(=O)Nc2ccc(CN(C)C4CCOCC4)cc2)CCS3(=O)=O)cc1Cl
261 to 262 | O=C(O)c1ccc(-c2nc(-c3ccc(OC(F)F)cc3)co2)cc1
173 to 175 | Cc1cccc(-c2nc3cccnn3c2-c2ccnc(NC(=O)N3CCCCC3)c2)c1
190 | COc1ccc(C(=O)NCCc2ccc(-c3ccc(O)cc3)cc2)c(OC)c1
256 to 258 | CC1CC(=O)NN=C1c1ccc(N2CCC(CN3C(=O)c4ccccc4C3=O)CC2)c([N+](=O)[O-])c1 (centres undefined)
215 to 217 | CCCc1nc2c(N)nc3cc(OCc4ccc(Cl)cc4)ccc3c2n1CC(C)C
157 to 162 | COc1cc(C(=O)NC2CN(C)C2)ccc1Nc1ncc2c(n1)N(C1CCCC1)CC(F)(F)C(=O)N2C
192 to 193 | O=C(O)Cc1ccc(CCNS(=O)(=O)c2ccc(F)cc2)cc1
101 to 103 | O=C(O)COCCCCN(c1cnc(-c2ccccc2)c(-c2ccccc2)n1)C1CCCC1
153 to 154 | CC(C)(C)OC(=O)N1CCC(CNc2c([N+](=O)[O-])cnc3cc(-c4ccccc4)ccc23)CC1
365 to 366 | O=C(O)c1ccc(CN2C(=O)c3ccc(C(=O)O)cc3C2=O)cc1
146 | CC1(C)C=C(n2cncn2)c2cccc(OCc3c(Cl)ccc(S(=O)(=O)N4CCC[C@H]4C(=O)O)c3Cl)c2N1

melting point [°C] | Compound
64 to 65 | CC(C)(C)C(=O)c1ccc(CSCc2ccc(C(=O)C(C)(C)C)cc2)cc1
203 to 204 | NC(=O)CNC(=O)c1cccc(-c2ccc3c(c2)N(c2cccc(Cl)c2Cl)CC3)c1
183 to 189 | CN1C(=O)CC[C@]2(C)c3ccc(-c4ccc5c(c4)OCCO5)cc3CC[C@@H]12
57 to 58 | CC(C)(C)OC(=O)Nc1cc(N2CCC(OCCOC3CCCCO3)CC2)c(-c2ccc(F)cc2)cc1NC(=O)CC(=O)c1cccc(-n2ccnc2)c1 (racemic)
177 to 178 | O=C1C(=O)N(Cc2ccc(F)nc2)c2ccc(S(=O)(=O)N3CC[C@H]3COc3ccccc3)cc21
152 to 164 | COc1ccc2c(c1)cc1cnc(Nc3ccc(N4CCOCC4)cc3OC)nn12
142 to 144 | CON(C)Cc1nc2cnc3ccccc3c2n1CC1CCOCC1
181 to 182 | C[C@@H](NC(=O)c1cnn(-c2ccc(Cl)cc2)c1N)[C@](O)(Cn1cncn1)c1ccc(F)cc1F
> 305 | COc1cc(Nc2c(C#N)cnc3c2sc2ccc([N+](=O)[O-])cc23)c(C)cc1Cl
163 to 165 | COC(=O)C1Cc2c([nH]c3ccccc23)C(c2ccc(Cl)c(Cl)c2)N1C(=O)CCl (centres undefined)
117 to 118 | COc1ccc(C(=O)Cc2ccc(OC)c(F)c2)cc1
285 to 288 | CCOC(=O)C(=O)Nc1ccc2c(=O)n3c(nc2c1)C(=Cc1ccc(OC)cc1OC)CC3
148 to 150 | COc1cc(Cl)ccc1N=c1scc(-c2ccc(Cl)c(S(=O)(=O)N(C)C)c2)n1C
120 to 121 | CC(=O)NCC1CN(c2ccc3c(c2)C(=O)CCCC3)C(=O)O1 (centres undefined)
106 to 108 | O=C1c2ccccc2C(=O)N1CCCCN1CCC(c2c[nH]c3ccccc23)CC1
218 to 220 | S=c1n(CCc2ccc(-c3nnn[nH]3)cc2)ccn1C1CCc2ccccc2C1 (centres undefined)
